Tested on: HEK293 cells
Assay: HEK293 attachment and growth, culture confluence by IncuCyte Plus (Examples 20, 21)
Type: cell-based, human
Experimental: HEK293 cells were maintained in EMEM (Lonza) containing 10% FBS (Lonza). Cells were passaged at 70-80% confluence using Trypsin/EDTA for dissociation, and seeded at c 2.0×10^4 cells/cm^2 in 75-cm^2 flasks with Nunclon Delta™ surface (Thermo Fisher Scientific, Roskilde, Denmark).
EMEM (500 μl) supplemented with 10% FBS containing 1.0, 5.0, 10, 15 or 20 μM Y-27632 (Sigma Chemical Co.), or 0.4, 1.2, 1.6, 2.4 or 2.8 μM H-1152 (Calbiochem, EMD Chemicals Inc., Darmstadt, Germany) was dispensed in Multidish 24-well plates with either Surface 4 or a non-treated (but gamma irradiated; 25 kGy) polystyrene surface. Another 500 μl of EMEM supplemented with 10% FBS and containing HEK293 cells were added to the wells (2.0×10^4 cells/cm^2). The cultures were placed in an IncuCyte™ Plus (Essen Instruments, Michigan, USA) and incubated at 37° C. in a humidified atmosphere of 5% CO2 in air. The IncuCyte™ Plus is an automated imaging platform, configured to fit inside a CO2 incubator, and designed to provide kinetic, non-invasive live cell imaging by acquiring phase contrast images of the cells at user-defined times and locations within the cultures. The primary metric of the instrument is culture confluence, that is, the fraction of the surface that is covered by cells. The HEK293 cells were incubated for 72 hours without manipulations, and images were collected every two hours at 9 positions in triplicate cultures. Culture confluence was determined using the IncuCyte™ Plus software (v. 3.4.1.25966).
EMEM (1.0 ml) supplemented with 10% FBS containing 0.4, 0.8, 1.2, 1.6, 2.0, 2.4 or 2.8 μM H-1152 was dispensed in Multidish 12-well plates with Surface 4. Another 1.0 ml of EMEM supplemented with […] and containing HEK293 cells were added to the wells (4.0×10^4 cells/cm^2). The cultures were placed in an IncuCyte™ Plus, and incubated at 37° C. in a humidified atmosphere of 5% CO2 in air for 42 hours (images were collected every 6 hours). One ml of culture medium was then removed by pipetting, and 1.0 ml EMEM supplemented with 10% FBS containing 0.2, 0.4, 0.6, 0.8, 1.0, 1.2 and 1.4 μM H-1152 was added. The cultures were placed in the IncuCyte™ Plus again, and images were collected every hour over the following 25 hours. Images were collected at 9 positions in triplicate cultures, and culture confluence was determined using the IncuCyte™ Plus software. Images from the IncuCyte™ Plus collected at specific positions in HEK293 cell cultures grown in the absence or presence of H-1152 (0.6 μM) was retrieved and presented as phase-contrast micrographs for the comparison of HEK293 culture morphology at the following time points: start of incubation (0 hours), just before medium change (42 hours), 1 hour after the medium change (43 hours), and, finally, after 52 hours of incubation.

C[C@@H](N)[C@H]1CC[C@H](C(=O)Nc2ccncc2)CC1 [Surface Y-27632, Y-27632]
attachment and growth of HEK293 cells (Surface 4, increasing concentration): enhances attachment and growth | growth and attachment of HEK293 cells (non-treated polystyrene surface, 10 μM Y-27632, 0.6-1.2 μM H-1152): slightly enhanced

Source: patent publication US11001802B2, “Surface of a vessel with polystyrene, nitrogen, oxygen and a static sessile contact angle for attachment and cultivation of cells” (Nunc A/S, priority 2008, dated 2021)
